Laboratory results as given in patent US9624247B2, “Pyrazolo-pyrrolidin-4-one derivatives as bet inhibitors and their use in the treatment of disease” (NOVARTIS AG, priority 2013, dated 2017).

What was measured:
BRD4 (His-Brd4(44-477)) = BRD4 (His-Brd4(44-477)) (Homo sapiens (Human), UniProt O60885); assay: TR-FRET in-vitro binding assay for BRD4; details: acetyl-histone H4 peptide
BRD3 (His-Brd3(20-477)) = BRD3 (His-Brd3(20-477)) (Homo sapiens (Human), UniProt Q15059); assay: TR-FRET in-vitro binding assay for BRD3; details: acetyl-histone H4 peptide
[1] = target: CREBBP bromodomain (His-CREBBP(1081-1197)) (Homo sapiens (Human), UniProt Q92793); assay: AlphaScreen in-vitro binding assay for CREBBP; details: AlphaScreen, acetyl-histone H4 peptide; read-out: CREBBP IC50
[2] = target: nuclear BRD4-NUT foci in HCC2494 NUT midline carcinoma cells (Homo sapiens (Human), UniProt O60885+Q86Y26); assay: Nut-foci formation assay (HCS); assay type: cell-based; details: 24 hours, NUT-foci immunofluorescence
Protocol: HCC2494 NUT midline carcinoma cells (expressing BRD4-NUT-fusion) were obtained from the University of Texas Southwestern and cultured in RPMI-1640 medium containing 10% Foetal Calf Serum at 37° C. in a humidified 5% CO2 incubator.
Compound-mediated inhibition of BRD4 activity was monitored by quantification of the number and intensity of nuclear BRD4-NUT foci using automated immunofluorescence microscopy. Briefly, 5000 cells in 20 μl fresh medium were seeded into Poly-D-Lysine-precoated 384-well plates and incubated overnight at 37° C. and 5% CO2, followed by addition of 5 μl medium containing compound dilutions at 5-fold their final intended concentration. Dose-response effects were assessed by 3-fold serial dilutions of the test compound, starting at 10 μM. Following incubation of the cells for 24 hours at 37° C. and 5% CO2, the cells were fixed by incubation with 3.7% formaldehyde for 10 min, followed by immunofluorescence staining using rabbit anti-NUT (Cell Signaling Technologies, Cat#3625) as primary, and AlexaFluor488-labeled goat anti-rabbit (Invitrogen, Cat#A11008) as secondary antibody (latter complemented with 1 μg/mL Hoechst33342 as DNA dye). Assay plates were imaged using the appropriate filter sets on the Cellomics VTi automated fluorescence microscopy platform (ThermoFisher Scientific) and the population average of the number of NUT-foci per nucleus is quantified using the Cellomics Spot Detection BioApplication image analysis algorithm (ThermoFisher Scientific). The effect of a particular test compound concentration on NUT-foci number and intensity is expressed as percentage of the value obtained for cells treated with vehicle only (DMSO, 0.1% final concentration), which was set as 100. Compound concentrations leading to half-maximal (IC50) inhibition of the aforementioned readout parameters were determined using standard four parameter curve fitting.

Sequence of BRD3 (His-Brd3(20-477)) (Q15059 20-477): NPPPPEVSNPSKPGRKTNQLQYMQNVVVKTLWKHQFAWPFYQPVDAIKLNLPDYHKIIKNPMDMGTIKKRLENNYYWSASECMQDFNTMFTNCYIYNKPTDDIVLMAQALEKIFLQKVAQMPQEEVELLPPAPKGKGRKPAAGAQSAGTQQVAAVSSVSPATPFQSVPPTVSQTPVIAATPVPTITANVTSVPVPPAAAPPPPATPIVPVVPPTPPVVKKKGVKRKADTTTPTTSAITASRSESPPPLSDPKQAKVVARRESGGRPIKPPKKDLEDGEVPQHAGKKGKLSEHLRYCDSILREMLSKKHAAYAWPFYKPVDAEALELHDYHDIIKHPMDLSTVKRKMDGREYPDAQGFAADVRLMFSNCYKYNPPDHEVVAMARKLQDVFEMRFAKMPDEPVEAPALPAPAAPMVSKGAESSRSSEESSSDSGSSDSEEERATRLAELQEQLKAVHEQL
Sequence of CREBBP bromodomain (His-CREBBP(1081-1197)) (Q92793 1081-1197): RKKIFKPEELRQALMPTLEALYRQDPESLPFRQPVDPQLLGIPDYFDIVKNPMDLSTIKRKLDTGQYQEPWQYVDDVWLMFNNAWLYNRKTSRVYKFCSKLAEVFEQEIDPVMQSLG

With `Cc1cc(N2C(=O)c3c(C4CC4)nn(C)c3[C@H]2c2ccc(Cl)cc2)cn2c(C)nnc12` [Example 2, (R)-6-(4-chlorophenyl)-3-cyclopropyl-5-(3,8-dimethyl-[1,2,4]triazolo[4,3-a]pyridin-6-yl)-1-methyl-5,6-dihydropyrrolo[3,4-c]pyrazol-4(1H)-one] the IC50 (BRD4 (His-Brd4(44-477))) was less than 11 nM, the IC50 (BRD3 (His-Brd3(20-477))) was 12 nM and the IC50 [1] was 6000 nM. The IC50 [2] was 4.71 nM.

With `Cc1cc(N2C(=O)c3c(C4CC4)nn(C)c3[C@H]2c2ccc(Cl)cc2)cn2c(C(F)F)nnc12` [Example 7, (R)-6-(4-chlorophenyl)-3-cyclopropyl-5-(3-(difluoromethyl)-8-methyl-[1,2,4]triazolo-[4,3-a]pyridin-6-yl)-1-methyl-5,6-dihydropyrrolo[3,4-c]pyrazol-4(1H)-one] the IC50 (BRD4 (His-Brd4(44-477))) was less than 11 nM, the IC50 (BRD3 (His-Brd3(20-477))) was 12 nM and the IC50 [1] was greater than 37000 nM. The IC50 [2] was 2.14 nM.

For `COc1cc(N2C(=O)c3c(C4CC4)nn(C)c3C2c2ccc(Cl)cc2)cn2c(C)nnc12` (racemic) [Example 5, 6-(4-chlorophenyl)-3-cyclopropyl-5-(8-methoxy-3-methyl-[1,2,4]triazolo[4,3-a]pyridin-6-yl)-1-methyl-5,6-dihydropyrrolo[3,4-c]pyrazol-4(1H)-one], the IC50 (BRD4 (His-Brd4(44-477))) was 28 nM, the IC50 (BRD3 (His-Brd3(20-477))) was 44 nM and the IC50 [1] was greater than 37000 nM. It also gave an IC50 [2] of 36 nM.

`Cc1cc(N2C(=O)c3c(C4CC4)nn(C)c3C2c2ccc(Cl)cc2)cn2c(CF)nnc12` (racemic) [Example 16, 6-(4-chlorophenyl)-3-cyclopropyl-5-(3-(fluoromethyl)-8-methyl-[1,2,4]triazolo[4,3-a]-pyridin-6-yl)-1-methyl-5,6-dihydropyrrolo[3,4-c]pyrazol-4(1H)-one] showed an IC50 (BRD4 (His-Brd4(44-477))) of 15 nM, an IC50 (BRD3 (His-Brd3(20-477))) of 13 nM and an IC50 [1] greater than 37000 nM. For the same compound, the IC50 [2] was 12.1 nM.

`COc1cc(N2C(=O)c3c(C4CC4)nn(C)c3C2c2ccc(Cl)cc2)cc2c1nnn2C` (stereo not shown) [Example 6] was tested, and the IC50 (BRD4 (His-Brd4(44-477))) was 22 nM, the IC50 (BRD3 (His-Brd3(20-477))) was 25 nM and the IC50 [1] was 21600 nM. It also gave an IC50 [2] of 54.8 nM.

`Cc1cc(N2C(=O)c3c(C4CC4)nn(C)c3C2c2ccc(Cl)cc2)cn2c(C)nnc12` (stereo not shown) [Example 1, 6-(4-chlorophenyl)-3-cyclopropyl-5-(3,8-dimethyl-[1,2,4]triazolo[4,3-a]pyridin-6-yl)-1-methyl-5,6-dihydropyrrolo[3,4-c]pyrazol-4(1H)-one] was tested, and the IC50 (BRD4 (His-Brd4(44-477))) was 24 nM, the IC50 (BRD3 (His-Brd3(20-477))) was 31 nM and the IC50 [1] was 11400 nM. The IC50 [2] was 16.2 nM.

Compound `Cc1cc(N2C(=O)c3c(C4CC4)nn(C)c3C2c2ccc(Cl)cc2)cn2c(C(F)F)nnc12` (racemic) [Example 3, 6-(4-chlorophenyl)-3-cyclopropyl-5-(3-(difluoromethyl)-8-methyl-[1,2,4]triazolo[4,3-a]pyridin-6-yl)-1-methyl-5,6-dihydropyrrolo[3,4-c]pyrazol-4(1H)-one] has an IC50 (BRD4 (His-Brd4(44-477))) of less than 11 nM, an IC50 (BRD3 (His-Brd3(20-477))) of less than 11 nM and an IC50 [1] greater than 37000 nM. The IC50 [2] was 8.27 nM.

With `COCCn1nc(C2CC2)c2c1C(c1ccc(Cl)cc1)N(c1cc(C)c3nnc(CF)n3c1)C2=O` (stereo not shown) [Example 18, 6-(4-chlorophenyl)-3-cyclopropyl-5-(3-(fluoromethyl)-8-methyl-[1,2,4]triazolo[4,3-a]-pyridin-6-yl)-1-(2-methoxyethyl)-5,6-dihydropyrrolo[3,4-c]pyrazol-4(1H)-one] the IC50 (BRD4 (His-Brd4(44-477))) was 25 nM, the IC50 (BRD3 (His-Brd3(20-477))) was 24 nM and the IC50 [1] was greater than 37000 nM. It also gave an IC50 [2] of 3.65 nM.

Work on `COCCn1nc(C2CC2)c2c1C(c1ccc(Cl)cc1)N(c1cc(C)c3nnc(C)n3c1)C2=O` (racemic) [Example 4, 6-(4-chlorophenyl)-3-cyclopropyl-5-(3,8-dimethyl-[1,2,4]triazolo[4,3-a]pyridin-6-yl)-1-(2-methoxyethyl)-5,6-dihydropyrrolo[3,4-c]pyrazol-4(1H)-one] yielded an IC50 (BRD4 (His-Brd4(44-477))) of less than 11 nM, an IC50 (BRD3 (His-Brd3(20-477))) of less than 11 nM and an IC50 [1] of 7300 nM. It also gave an IC50 [2] of 9.04 nM.

`Cc1nnc2c(NC(=O)OC(C)(C)C)cc(N3C(=O)c4c(C5CC5)nn(C)c4C3c3ccc(Cl)cc3)cn12` (stereo not shown) [Example 27, tert-butyl (6-(6-(4-chlorophenyl)-3-cyclopropyl-1-methyl-4-oxopyrrolo[3,4-c]pyrazol-5(1H,4H,6H)-yl)-3-methyl-[1,2,4]triazolo[4,3-a]pyridin-8-yl)carbamate] was tested, and the IC50 (BRD4 (His-Brd4(44-477))) was 36 nM, the IC50 (BRD3 (His-Brd3(20-477))) was 65 nM and the IC50 [1] was 8100 nM. It also gave an IC50 [2] of 22.4 nM.

Work on `CCOC(=O)Nc1cc(N2C(=O)c3c(C4CC4)nn(C)c3C2c2ccc(Cl)cc2)cn2c(C)nnc12` (stereo not shown) [Example 29, ethyl (6-(6-(4-chlorophenyl)-3-cyclopropyl-1-methyl-4-oxopyrrolo[3,4-c]pyrazol-5-(1H,4H,6H)-yl)-3-methyl-[1,2,4]triazolo[4,3-a]pyridin-8-yl)carbamate] yielded an IC50 (BRD4 (His-Brd4(44-477))) of 23 nM, an IC50 (BRD3 (His-Brd3(20-477))) of 22 nM and an IC50 [2] of 2.2 nM.
